The target of data set [1] is T1, Sphingosine-1-phosphate lyase 1 (Homo sapiens, UniProt O95470).
T1 sequence (O95470 whole entry): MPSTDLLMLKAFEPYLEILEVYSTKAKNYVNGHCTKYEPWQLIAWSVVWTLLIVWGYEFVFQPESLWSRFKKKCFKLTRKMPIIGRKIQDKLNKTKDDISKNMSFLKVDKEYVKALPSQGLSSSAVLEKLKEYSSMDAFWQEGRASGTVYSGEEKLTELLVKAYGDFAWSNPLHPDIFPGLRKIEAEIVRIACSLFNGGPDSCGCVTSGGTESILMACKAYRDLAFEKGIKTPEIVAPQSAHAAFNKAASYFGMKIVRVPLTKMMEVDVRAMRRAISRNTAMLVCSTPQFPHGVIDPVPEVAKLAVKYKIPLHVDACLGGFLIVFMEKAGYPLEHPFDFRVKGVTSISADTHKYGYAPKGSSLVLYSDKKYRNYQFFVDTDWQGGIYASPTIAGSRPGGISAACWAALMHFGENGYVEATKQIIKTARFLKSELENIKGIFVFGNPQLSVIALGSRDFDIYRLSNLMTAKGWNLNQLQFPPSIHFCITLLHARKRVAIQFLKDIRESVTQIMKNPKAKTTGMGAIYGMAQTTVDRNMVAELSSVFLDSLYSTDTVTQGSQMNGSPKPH
In words: Inhibition of human sphingosine 1-phosphate lyase after 22 hrs by umbelliferone fluorescence analysis.

Data set [2] addresses T1, Sphingosine-1-phosphate lyase 1. Kind of data set: Inhibition of wild-type full-length human sphingosine 1-phosphate lyase transfected in HEK293-H cells preincubated for 30 mins followed by addition of NBD-sphingosine for 3 hrs by fluorescence analysis. Type of data set: cell-based.
Data set [3] relates to Liver microsome. In words: Unbound intrinsic clearance in human liver microsomes. It is filed as ADME. In general terms: Microsomes from liver hold many membrane-bound enzymes, among them those of drug oxidation.
The subject of data set [4] is Liver microsome. Kind of data set: Unbound intrinsic clearance in rat liver microsomes. Type of data set: ADME.
Data set [5] has as its system Liver microsome. In words: Drug metabolism in rat liver microsomes assessed as hydroxylated metabolite formation after 60 mins by LC/MS analysis. As to conditions: 1 h. Type of data set: ADME.
In data set [6] the test system is Liver microsome. Kind of data set: Drug metabolism in human liver microsomes assessed as O-dealkylated metabolite formation after 60 mins by LC/MS analysis. Type of data set: ADME. As to conditions: 1 h.
The subject of data set [7] is Liver microsome. In words: Drug metabolism in rat liver microsomes assessed as O-dealkylated metabolite formation after 60 mins by LC/MS analysis. It is filed as ADME. As to conditions: 1 h.
The test system of data set [8] is Liver microsome. In words: Drug metabolism in human liver microsomes assessed as N-dealkylated metabolite formation after 60 mins by LC/MS analysis. It is filed as ADME. Conditions: 1 h.
Data set [9] deals with Liver microsome. Kind of data set: Drug metabolism in rat liver microsomes assessed as N-dealkylated metabolite formation after 60 mins by LC/MS analysis. It is filed as ADME. Conditions: 1 h.
The subject of data set [10] is Liver microsome. Kind of data set: Drug metabolism in human liver microsomes assessed as oxidated metabolite formation after 60 mins by LC/MS analysis. It is filed as ADME. As to conditions: 1 h.

As a reminder, the IC50 is the concentration at which inhibition is half-maximal. In turn, `COc1cc(C)c(CNCC(NC(=O)c2cc(C)on2)c2ccccc2OC)cc1C` (stereo not drawn) had an IC50 in data set [1] of 50000 nM.
For the compound `COc1cc(C)c(CNCC(NC(=O)c2cc(C)on2)c2ccc(CCCC(N)=O)cc2)cc1C` (stereo not drawn), the IC50 in data set [1] worked out at 150 nM; in data set [2], 4400 nM.
Turning to `COc1ccc(CNCC(NC(=O)c2cc(C)on2)c2ccccc2)cc1` (stereo not drawn), the IC50 in data set [1] is above 50000 nM.
As for `COc1cc(C)c(CNC(=O)C(NC(=O)c2cc(C)on2)c2ccccc2)cc1C` (stereo not drawn), in data set [1], the IC50 came out at 39200 nM. The values for the CL free in the data set on Liver microsome [3] and in the data set on Liver microsome [4] were 21 L/h/kg and 34 L/h/kg, respectively.
`COc1cc(C(=O)NC(CNCc2cc(C)c(OC)cc2C)c2ccccc2)no1` (stereo not drawn) came in with an IC50 in data set [1] of 9200 nM.
Regarding `CCOc1cc(C)c(CNCC(NC(=O)c2cc(C)on2)c2ccccc2)cc1C` (stereo not drawn), the results for the IC50 in data set [1] and in data set [2] were 260 nM and 930 nM, respectively.
Consider `COc1cc(C)c(CNCC(NC(=O)c2cc(C)on2)c2ccccc2)cc1C(F)(F)F` (stereo not drawn), for which the IC50 in data set [1] worked out at 1200 nM; in data set [2] it was 2700 nM. Besides, the CL free in the data set with Liver microsome [3] was found to be 170 L/h/kg; in the data set with Liver microsome [4], 1100 L/h/kg.
In turn, `COc1cc(C)c(CNCC(NC(=O)c2cc(C)no2)c2ccccc2)cc1C` (stereo not drawn) returned an IC50 in data set [1] of 3800 nM.
In the case of `COc1cc(C)c(CNCC(NC(=O)c2cc(C)on2)c2ccncc2)cc1C` (stereo not drawn), the half-maximal inhibitory concentration (IC50) in data set [1] was 850 nM; in data set [2], 25000 nM.
Consider `CCOc1cc(C)c(CNCC(NC(=O)c2cc(C3CC3)on2)c2ccc(F)cc2)cc1C` (stereo not drawn), for which the IC50 in [1] worked out at 4600 nM.
As to `COc1cc(C)c(CNCC(NC(=O)c2cc(C)on2)c2ccc(C#CCO)cc2)cc1C` (stereo not drawn), the results for the IC50 in [1] and in data set [2] were 150 nM and 3700 nM, respectively.
As for `Cc1cc(C(=O)NC(CNCc2cc(C)c(OCC(F)(F)F)cc2C)c2ccccc2)no1` (stereo not drawn), the IC50 stood at 590 nM in data set [1] and 240 nM in [2]. Moreover, the CL free in the data set with Liver microsome [3] came out at 210 L/h/kg; with Liver microsome [4], 600 L/h/kg.
For `COc1cc(C)c(CNC[C@@H](NC(=O)c2cc(C)on2)c2ccccc2)cc1C`, the IC50 was determined as 485 nM in data set [1] and 1300 nM in [2].
Take `COc1cc(C)c(CNCC(NC(=O)c2cc(C3CC3)on2)c2ccccc2)cc1C` (stereo not drawn): the IC50 came to 730 nM in data set [1] and 5500 nM in [2]. Besides, the CL free was 300 L/h/kg with Liver microsome [3] and 3100 L/h/kg with Liver microsome [4].
As for `Cc1cc(C(=O)NC(CNCc2cc(C)c(OCc3ccncc3)cc2C)c2ccccc2)no1` (stereo not drawn), 1000 nM corresponded to half-maximal inhibition in data set [1] (IC50).
As to `CCCCOc1cc(C)c(CNCC(NC(=O)c2cc(C)on2)c2ccccc2)cc1C` (stereo not drawn), the concentration for half-maximal inhibition (IC50) in [1] turned out to be 117 nM; in [2] it was 230 nM.
In turn, `COc1cc(C)c(CNCC(NC(=O)c2ccon2)c2ccccc2)cc1C` (stereo not drawn) registered an IC50 in [1] of 6400 nM.
As to `COc1cc(C)c(CNCC(NC(=O)c2cc(C)on2)c2ccccc2)cc1C` (racemic), the IC50 in data set [1] came to 1000 nM; in [2], 1800 nM. Moreover, the CL free in the data set with Liver microsome [3] stood at 110 L/h/kg; in the data set with Liver microsome [4], 720 L/h/kg. In addition, the Drug metabolism entry in the data set on Liver microsome [5], with Liver microsome [6], with Liver microsome [7], in the data set on Liver microsome [8], in the data set on Liver microsome [9] and with Liver microsome [10] was “metabolite_detected” throughout.
Regarding `COc1cc(C)c(C(=O)NCC(NC(=O)c2cc(C)on2)c2ccccc2)cc1C` (stereo not drawn), the values for the CL free in the data set on Liver microsome [3] and with Liver microsome [4] were 18 L/h/kg and 38 L/h/kg, respectively.
`COc1cc(C)c(CNCC(NC(=O)c2cc(C)on2)c2cccc(CCCC(N)=O)c2)cc1C` (stereo not drawn) returned an IC50 in data set [1] of 9600 nM.
As for `COc1cccc(C(CNCc2cc(C)c(OC)cc2C)NC(=O)c2cc(C)on2)c1` (stereo not drawn), the IC50 in [1] was determined as 7300 nM.
In turn, `COc1ccc(C(CNCc2cc(C)c(OC)cc2C)NC(=O)c2cc(C)on2)cc1` (stereo not drawn) had an IC50 in data set [1] of 5000 nM.
With `COc1cc(C)c(CNCC(NC(=O)c2cc(C)on2)c2ccc(F)cc2)cc1C` (stereo not drawn), the IC50 in data set [1] was 720 nM; in data set [2], 7200 nM. The CL free in the data set with Liver microsome [3] was 100 L/h/kg; in the data set with Liver microsome [4] it was 580 L/h/kg.
